{"source": "patent US8513243B2", "about": "“ABT-263 crystalline forms” (AbbVie Inc., priority 2009, dated 2013)", "key": {"[1]": {"assay": "dissolution in a lipid carrier when preparing a liquid formulation", "type": "physicochemical", "conditions": "solution in a lipid carrier; compared with amorphous form"}, "[2]": {"tested_on": "small-cell lung cancer (SCLC) and lymphoid malignancies", "conditions": "against SCLC and lymphoid malignancies; cited from earlier work"}, "[3]": {"assay": "sulfoxide formation in lipid solution", "type": "physicochemical", "conditions": "formulated in lipid solution, in the absence of antioxidant; compared with salt form, e.g. ABT-263 bis-HCl"}}, "data": [{"compound": "CC1(C)CCC(c2ccc(Cl)cc2)=C(CN2CCN(c3ccc(C(=O)NS(=O)(=O)c4ccc(N[C@H](CCN5CCOCC5)CSc5ccccc5)c(S(=O)(=O)C(F)(F)F)c4)cc3)CC2)C1", "note": "[crystalline ABT-263, N-(4-(4-((2-(4-chlorophenyl)-5,5-dimethyl-1-cyclohex-1-en-1-yl)methyl)piperazin-1-yl)benzoyl)-4-(((1R)-3-(morpholin-4-yl)-1-((phenylsulfanyl)methyl)propyl)amino)-3-((trifluoromethyl)sulfonyl)benzenesulfonamide]", "values": [{"measurement": "dissolution behaviour", "setting": "[1]", "value": "dissolves faster and has less tendency to form a gel during dissolution"}]}, {"compound": "CN(C)CC[C@H](CSc1ccccc1)Nc1ccc(S(=O)(=O)NC(=O)c2ccc(N3CCN(Cc4ccccc4-c4ccc(Cl)cc4)CC3)cc2)cc1[N+](=O)[O-]", "note": "[ABT-737, N-(4-(4-((4′-chloro-(1,1′-biphenyl)-2-yl)methyl)piperazin-1-yl)benzoyl)-4-(((1R)-3-(dimethylamino)-1-((phenylsulfanyl)methyl)propyl)amino)-3-nitrobenzene-sulfonamide]", "values": [{"measurement": "single-agent activity", "setting": "[2]", "value": "single-agent activity"}]}, {"compound": "CC1(C)CCC(c2ccc(Cl)cc2)=C(CN2CCN(c3ccc(C(=O)NS(=O)(=O)c4ccc(N[C@H](CCN5CCOCC5)CSc5ccccc5)c(S(=O)(=O)C(F)(F)F)c4)cc3)CC2)C1", "note": "[ABT-263 free base, N-(4-(4-((2-(4-chlorophenyl)-5,5-dimethyl-1-cyclohex-1-en-1-yl)methyl)piperazin-1-yl)benzoyl)-4-(((1R)-3-(morpholin-4-yl)-1-((phenylsulfanyl)methyl)propyl)amino)-3-((trifluoromethyl)sulfonyl)benzenesulfonamide]", "values": [{"measurement": "susceptibility to sulfoxide formation", "setting": "[3]", "value": "less susceptible to sulfoxide formation than ABT-263 in salt form"}]}]}
